Experimental findings from ChEMBL document CHEMBL1128032, “Synthesis and antiviral activity of amino acid esters of ribavirin” (1994) are described below.

Experiment [1] concerns Influenza A virus. As to the kind of experiment: Antiviral effect against influenza virus A strain H7N7 (FPV) by the difference between zone of plaque inhibition and zone of cytotoxicity; (11-12 mm). The format is functional, unidentified influenza virus.
For experiment [2], the system named is Newcastle disease virus. Briefly: Antiviral effect against newcastle disease virus strain Russeff (NDV) by the difference between zone of plaque inhibition and zone of cytotoxicity; (21-40 mm). Format: functional, avian paramyxovirus 1.
Experiment [3] concerns Suid alphaherpesvirus 1. As to the kind of experiment: Antiviral effect against pseudorabies virus strain Anjeszky A2 by the difference between zone of plaque inhibition and zone of cytotoxicity; (21-40 mm). The format is functional.
The subject of experiment [4] is Newcastle disease virus. Briefly: Antiviral activity against newcastle disease virus strain Russeff (NDV) was determined as zone of plaque inhibition. The format is functional, avian paramyxovirus 1.
Experiment [5] concerns Influenza A virus. As to the kind of experiment: Antiviral activity against influenza virus A strain H7N7 (FPV) was determined as zone of plaque inhibition. Format: functional, unidentified influenza virus.
In experiment [6] the test system is Newcastle disease virus. Briefly: Antiviral activity against newcastle disease virus strain Russeff (NDV) was determined as zone of cytotoxicity. Also on record: unit not given here. Format: functional, avian paramyxovirus 1.
For experiment [7], the system named is Suid alphaherpesvirus 1. Briefly: Antiviral activity against pseudorabies virus strain Anjeszky A2 was determined as zone of cytotoxicity. Also on record: unit not given here. Format: functional.
The subject of experiment [8] is Suid alphaherpesvirus 1. Briefly: Antiviral activity against pseudorabies virus strain Anjeszky A2 was determined as zone of plaque inhibition. Format: functional. Also on record: unit not given here.
Experiment [9] has as its system Influenza A virus. As to the kind of experiment: Antiviral effect against influenza virus A strain H7N7 (FPV) by the difference between zone of plaque inhibition and zone of cytotoxicity. The format is functional, unidentified influenza virus.
In experiment [10] the test system is Newcastle disease virus. Briefly: Antiviral effect against newcastle disease virus strain Russeff (NDV) by the difference between zone of plaque inhibition and zone of cytotoxicity; (11-12 mm). The format is functional, avian paramyxovirus 1.
The subject of experiment [11] is Influenza A virus. Briefly: Antiviral activity against influenza virus A strain H7N7 (FPV) was determined as zone of cytotoxicity. Format: functional, unidentified influenza virus.
The test system of experiment [12] is Suid alphaherpesvirus 1. As to the kind of experiment: Antiviral effect against pseudorabies virus strain Anjeszky A2 by the difference between zone of plaque inhibition and zone of cytotoxicity; (6-10 mm). The format is functional.
Experiment [13] relates to Suid alphaherpesvirus 1. As to the kind of experiment: Antiviral effect against pseudorabies virus strain Anjeszky A2 by the difference between zone of plaque inhibition and zone of cytotoxicity. Format: functional.
Experiment [14] deals with Newcastle disease virus. Briefly: Antiviral effect against newcastle disease virus strain Russeff (NDV) by the difference between zone of plaque inhibition and zone of cytotoxicity. Format: functional, avian paramyxovirus 1.
Experiment [15] has as its system Newcastle disease virus. As to the kind of experiment: Antiviral effect against newcastle disease virus strain Russeff (NDV) by the difference between zone of plaque inhibition and zone of cytotoxicity; (6-10 mm). The format is functional, avian paramyxovirus 1.
Experiment [16] has as its system Influenza A virus. Briefly: Antiviral effect against influenza virus A strain H7N7 (FPV) by the difference between zone of plaque inhibition and zone of cytotoxicity; (6-10 mm). Format: functional, unidentified influenza virus.

With `NC(=O)c1ncn([C@@H]2O[C@H](CO)[C@@H](O)[C@H]2O)n1` [RIBAVIRIN], the Activity in the experiment on Influenza A virus [1] stood at 12 mM; with Newcastle disease virus [2] it was 40 mM; in the experiment with Suid alphaherpesvirus 1 [3], 40 mM.
On to `CC(C)(C)OC(=O)NCC(=O)OC[C@H]1O[C@@H](n2cnc(C(N)=O)n2)[C@@H]2OC(C)(C)O[C@@H]21`, for which the Activity stood at 31.5 mm in the experiment on Newcastle disease virus [4]; 0 mm in the experiment with Influenza A virus [5]; 19 in the experiment on Newcastle disease virus [6]; 15 with Suid alphaherpesvirus 1 [7]; 23.5 with Suid alphaherpesvirus 1 [8]; 5 mM with Influenza A virus [9]. Also, the values for the Activity in the experiment with Newcastle disease virus [10], in the experiment with Influenza A virus [11] and in the experiment on Suid alphaherpesvirus 1 [12] were 12 mM, 10.2 mm and 10 mM, respectively.
As to `CC(C)(C)OC(=O)N[C@@H](Cc1ccccc1)C(=O)OCC1OC(n2cnc(C(N)=O)n2)C2OC(C)(C)OC12` (stereo partly drawn), the Activity with Newcastle disease virus [4] amounted to 0 mm; in the experiment on Influenza A virus [5], 19.3 mm; in the experiment on Newcastle disease virus [6] it was 16.5; in the experiment with Influenza A virus [1] it was 12 mM; in the experiment on Suid alphaherpesvirus 1 [7] it was 16.5; with Suid alphaherpesvirus 1 [8] it was 0. Further, the Activity is on record as 5 mm with Suid alphaherpesvirus 1 [13], 5 mM in the experiment on Newcastle disease virus [14] and 9.2 mm in the experiment on Influenza A virus [11].
Regarding `CC(C)(C)OC(=O)N[C@@H](Cc1c[nH]c2ccccc12)C(=O)OCC1OC(n2cnc(C(N)=O)n2)C2OC(C)(C)OC12` (stereo partly drawn), the Activity in the experiment with Newcastle disease virus [4] amounted to 0 mm; in the experiment with Influenza A virus [5] it was 15.7 mm; in the experiment with Newcastle disease virus [6], 10.7; in the experiment with Suid alphaherpesvirus 1 [7], 9; with Suid alphaherpesvirus 1 [8], 0; in the experiment with Influenza A virus [9], 5 mM. Besides, the Activity worked out at 5 mm in the experiment on Suid alphaherpesvirus 1 [13], 5 mM in the experiment with Newcastle disease virus [14] and 10.7 mm with Influenza A virus [11].
For `CC(C)(C)OC(=O)N1CCC[C@H]1C(=O)OCC1OC(n2cnc(C(N)=O)n2)C2OC(C)(C)OC12` (stereo partly drawn), the Activity in the experiment on Newcastle disease virus [4] amounted to 16.5 mm; with Influenza A virus [5] it was 22.8 mm; in the experiment on Newcastle disease virus [6], 8.7; in the experiment on Suid alphaherpesvirus 1 [7], 10; in the experiment on Suid alphaherpesvirus 1 [8] it was 0; in the experiment on Suid alphaherpesvirus 1 [13], 5 mm. Further, the figures for the Activity with Influenza A virus [11], in the experiment on Newcastle disease virus [15] and in the experiment with Influenza A virus [16] were 14 mm, 10 mM and 10 mM, respectively.
Consider `CC(C)C[C@H](NC(=O)OC(C)(C)C)C(=O)OCC1OC(n2cnc(C(N)=O)n2)C2OC(C)(C)OC12` (stereo partly drawn), for which the Activity in the experiment on Newcastle disease virus [4] amounted to 28 mm; in the experiment on Influenza A virus [5], 16.8 mm; with Newcastle disease virus [6], 16; in the experiment with Suid alphaherpesvirus 1 [7], 16; in the experiment on Suid alphaherpesvirus 1 [8], 18; in the experiment with Newcastle disease virus [10], 12 mM. For the same compound, the Activity was found to be 5 mm in the experiment with Suid alphaherpesvirus 1 [13], 8.3 mm in the experiment on Influenza A virus [11] and 10 mM with Influenza A virus [16].
